Measured values from patent publication US10029989B2, “Imidazole derivatives” (Hoffmann-La Roche Inc., priority 2015, dated 2018).

Assays:
human EAAT3 = target: T1, human EAAT3 (Homo sapiens, UniProt P43005); test: FLIPR Membrane Potential (FMP) assay, antagonist potency at human EAAT3; format: cell-based; conditions: HEK-293 cells stably expressing human EAAT3; L-glutamate as agonist at EC80; antagonist applied 15 min before agonist; Kb by Cheng-Prusoff from IC50
T1 construct: expressed in transfected cells
T1 sequence (P43005 1-524): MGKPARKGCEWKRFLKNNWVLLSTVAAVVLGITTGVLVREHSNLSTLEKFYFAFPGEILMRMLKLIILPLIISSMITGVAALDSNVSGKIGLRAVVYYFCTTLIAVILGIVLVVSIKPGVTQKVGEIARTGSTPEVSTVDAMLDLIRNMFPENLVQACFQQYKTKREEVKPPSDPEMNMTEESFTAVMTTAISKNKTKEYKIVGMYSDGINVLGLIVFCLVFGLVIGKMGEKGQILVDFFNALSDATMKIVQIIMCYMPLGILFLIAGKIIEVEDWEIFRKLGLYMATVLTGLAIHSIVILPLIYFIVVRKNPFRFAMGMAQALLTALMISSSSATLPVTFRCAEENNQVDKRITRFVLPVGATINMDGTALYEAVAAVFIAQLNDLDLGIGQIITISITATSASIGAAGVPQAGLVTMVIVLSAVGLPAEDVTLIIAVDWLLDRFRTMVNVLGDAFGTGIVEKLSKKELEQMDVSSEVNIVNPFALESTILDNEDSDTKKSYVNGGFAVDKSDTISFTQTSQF
Protocol: The FLIPR Membrane Potential (FMP) Assay
HEK-293 cells stably expressing human EAAT3 were seeded at 55 000 cells/well in growth medium (DMEM glutamate free (Invitrogen 11960-044), 1% Pen Strep (10 ml/1 GIBCO BRL N°15140-023), 10% FCS non dialysed heat inactivated, 5 mg/l puromycin) in poly-D-lysine treated 96-well black microtiter plates with clear-bottom. After 24 h, the growth medium was removed and 100 μl/well of Krebs buffer (140 mM NaCl, 4.7 mM KCl, 2.5 mM CaCl2, 1.2 mM MgCl2, 11 mM HEPES, 10 mM D-glucose, pH=7.4) added. The cells were then loaded by adding 100 μl/well FMP assay dye (FLIPR Membrane Potential assay reagent, Molecular Devices). The 96-well plates were then incubated at 37° C. for 1 h. The depolarization of the cells will cause more dye to enter in the cells, where it will bind to intracellular proteins and lipids and cause an increase in the fluorescence signal. Antagonist potency at human EAAT3 was determined by using L-glutamate as agonist at a concentration which gives 80% of the maximum response. The antagonists were applied 15 min before the application of the agonist L-glutamate. The assays were performed at room temperature and measurements done by using a Fluorometric Imaging Plate Reader (FLIPR, Molecular Devices) and filter #2. Responses were measured as peak increase in fluorescence minus basal (i.e. fluorescence without addition of L-glutamate). Kb was determined using the Cheng-Prusoff equation Kb=IC50/[1+(A/EC50)], where IC50 is the concentration of the antagonist producing 50% inhibition, A is the concentration of the agonist against which the IC50 is being determined (at EC80) and EC50 is the concentration of the agonist producing 50% […].

Kb (human EAAT3) [µM]	melting point [°C]	Compound
0.21	95	CC(C)c1nccn1-c1cc(C(=O)NC(C)(C)C)cc(-c2ccc(C3CC3)cc2)c1 [Example 25, N-tert-Butyl-3-(4-cyclopropylphenyl)-5-(2-propan-2-ylimidazol-1-yl)-benzamide]
0.13	104	Cc1ccc(-c2cc(C(=O)NC(C)(C)C)cc(-n3ccnc3C(C)C)c2)cc1 [Example 26, N-tert-Butyl-3-(4-methylphenyl)-5-(2-propan-2-ylimidazol-1-yl)-benzamide]
0.28	98.5	Cc1cc(-c2cc(C(=O)NC(C)(C)C)cc(-n3ccnc3C(C)C)c2)ccc1F [Example 27, N-tert-Butyl-3-(4-fluoro-3-methylphenyl)-5-(2-propan-2-ylimidazol-1-yl)-benzamide]
0.16	101	CC(C)(C)NC(=O)c1cc(-c2ccc(Cl)cc2)cc(-n2ccnc2C(C)(C)C)c1 [Example 28, N-tert-Butyl-3-(2-tert-butylimidazol-1-yl)-5-(4-chlorophenyl)-benzamide]
0.15	114	CC(C)(C)NC(=O)c1cc(-c2ccc(Cl)cc2)cc(-n2ccnc2CO)c1 [Example 29, N-tert-Butyl-3-(4-chlorophenyl)-5-[2-(hydroxymethyl)-imidazol-1-yl]-benzamide]
0.16	76	CCC(C)(C)NC(=O)c1cc(-c2ccc(Cl)cc2)cc(-n2ccnc2CO)c1 [Example 30, 3-(4-Chlorophenyl)-5-[2-(hydroxymethyl)-imidazol-1-yl]-N-(2-methylbutan-2-yl)-benzamide]
0.41	189.5	CCC(C)(C)NC(=O)c1cc(-c2ccc(Cl)cc2)cc(-n2ccnc2C(C)(C)C)c1 [Example 31, 3-(2-tert-Butylimidazol-1-yl)-5-(4-chlorophenyl)-N-(2-methylbutan-2-yl)-benzamide]
0.18	218	CC(C)(C)NC(=O)c1cc(-c2ccc(F)cc2)cc(-n2ccnc2C(C)(C)C)c1 [Example 32, N-tert-Butyl-3-(2-tert-butylimidazol-1-yl)-5-(4-fluorophenyl)-benzamide]
0.29	225	CC(C)(C)NC(=O)c1cc(-c2ccc(C(F)(F)F)cc2)cc(-n2ccnc2C(C)(C)C)c1 [Example 33, N-tert-Butyl-3-(2-tert-butylimidazol-1-yl)-5-[4-(trifluoromethyl)-phenyl]-benzamide]
0.1	183	CC(C)(C)NC(=O)c1cc(-c2ccc(F)cc2)cc(-n2ccnc2C(C)(C)O)c1 [Example 34, N-tert-Butyl-3-(4-fluorophenyl)-5-[2-(2-hydroxypropan-2-yl)-imidazol-1-yl]-benzamide]
0.21	173.5	CC(C)(C)NC(=O)c1cc(-c2ccc(C(F)(F)F)cc2)cc(-n2ccnc2C(C)(C)O)c1 [Example 35, N-tert-Butyl-3-[2-(2-hydroxypropan-2-yl)-imidazol-1-yl]-5-[4-(trifluoromethyl)-phenyl]-benzamide]
0.33	87	CCC(C)(C)NC(=O)c1cc(-c2ccc(Cl)cc2)cc(-n2ccnc2C(C)C)c1 [Example 36, 3-(4-Chlorophenyl)-N-(2-methylbutan-2-yl)-5-(2-propan-2-ylimidazol-1-yl)-benzamide]
0.17	85	CCC(C)(C)NC(=O)c1cc(-c2ccc(Cl)cc2)cc(-n2ccnc2C2CC2)c1 [Example 37, 3-(4-Chlorophenyl)-5-(2-cyclopropylimidazol-1-yl)-N-(2-methylbutan-2-yl)-benzamide]
0.07	78	CC(C)(C)NC(=O)c1cc(-c2ccc(Cl)cc2)cc(-n2ccnc2C(C)(C)O)c1 [Example 40, N-tert-Butyl-3-(4-chlorophenyl)-5-[2-(2-hydroxypropan-2-yl)-imidazol-1-yl]-benzamide]
0.54	97	CC(C)c1nccn1-c1cc(C(=O)NC(C)(C)CO)cc(-c2ccc(Cl)cc2)c1 [Example 41, 3-(4-Chlorophenyl)-N-(1-hydroxy-2-methylpropan-2-yl)-5-(2-propan-2-yl-imidazol-1-yl)-benzamide]
0.17	99	CC(C)(CO)NC(=O)c1cc(-c2ccc(Cl)cc2)cc(-n2ccnc2C2CC2)c1 [Example 42, 3-(4-Chlorophenyl)-5-(2-cyclopropylimidazol-1-yl)-N-(1-hydroxy-2-methylpropan-2-yl)-benzamide]
0.08	234	CC(C)(CO)NC(=O)c1cc(-c2ccc(Cl)cc2)cc(-n2ccnc2C(C)(C)C)c1 [Example 43, 3-(2-tert-Butylimidazol-1-yl)-5-(4-chlorophenyl)-N-(1-hydroxy-2-methylpropan-2-yl)-benzamide]
